Laboratory results as given in US20040176466A1, “Combination therapy for the treatment of neurological disorders” (priority 2001, published 2004).
“And” between values parts separate entries of the source, which are not always exact repeats. Equal entries are not always repeated. Where two headings read alike, the source gives them in different places.

Experiments:
[1] = Steady-state pharmacokinetics of atomoxetine alone and coadministered with paroxetine in CYP2D6 extensive metabolizers; format: in vivo; conditions: both sexes, human, plasma, oral; for AUC: read-out: AUC0-τ; for Vd/F: read-out: Vz/F
Protocol: The study was conducted at the Lilly Laboratory for Clinical Research in Indianapolis, Ind. The protocol and informed consent documents were approved by the Institutional Review Board of Indiana University—Purdue University at Indianapolis. The study was conducted in accordance with the Declaration of Helsinki. All participants provided informed written consent before enrollment into the study. All volunteers were considered to be healthy on the basis of medical history, electrocardiographic findings, and routine clinical laboratory tests. Volunteers with clinically abnormal results were excluded from the study.
Only CYP2D6 extensive metabolizers, as determined by genotyping and phenotyping analyses, were entered in this study. CYP2D6 genotype was performed by PPGx (Morrisville, N.C.). DNA from whole blood samples were isolated and purified and analyzed for CYP2D6 genotype using a validated PCR ([…]) method. CYP2D6 genotype was evaluated by testing the *3, *4, *5, *6, *7, and *8 poor metabolizer (PM) alleles. If patients were homozygous for any combination of these alleles, a PM genotype was assigned; otherwise, an extensive metabolizer genotype (EM) was assigned. CYP2D6 phenotype was performed using the urine ratio of dextromethorphan/dextrorphan following an oral dose of dextromethorphan. Volunteers with a ratio greater than 0.3 were assigned a PM phenotype, and those with a ratio less than 0.3 were assigned an EM phenotype.
This was a single-blind, sequential study composed of two periods. […] Doses were administered with 240 mL of water.
Pharmacokinetic parameter estimates were calculated with noncompartmental analysis by using WinNonlin Professional Version 2.1 (Pharsight Corp, Mountain View, Calif.). The steady state maximum plasma concentration (Css,max), and the corresponding time of the maximum concentration (Tmax) were observed values. The elimination rate constant (λz) was determined as the slope of the linear regression for the terminal log-linear portion of the concentration-time curve. Terminal half-life (t1/2) was calculated as ln(2)/λz. The area under the plasma concentration time curve (AUC0-τ) over the dosing interval was estimated by the linear trapezoidal method. […] Apparent clearance (CLss/F) and apparent volume of distribution (Vz/F) were calculated as Dose/AUC0-τ and as (CLss/F)/λz, respectively.
Except for Tmax, all parameters were log transformed, and a mixed-effect analysis of variance was performed with subject as a random effect. […] For Tmax, a Wilcoxon sign-rank test was performed. Data from all subjects who received study drug are included in the pharmacokinetic and statistical analyses, except for the Tmax analyses that excluded subjects with measurements for only one treatment. Statistical analyses were performed with SAS Version 6.12 (SAS Institute, Cary, N.C.).

[2] = system: ADHD; experiment: Study of atomoxetine versus placebo in the treatment of ADHD; format: in vivo, human
From the text: Inter-individual variability in drug metabolism poses a challenge in predicting dosing, safety, and efficacy of a drug. Pharmacokinetic factors, as well as substantial intersubject pharmacodynamic variability, have been proposed as a factor in cases of therapeutic failure of methylphenidate (DeVane, et al., Journal of Clinical Psychopharmacology, 20(3), 347 (2000)).

[3] = cited from earlier work

Work on `CNCC[C@@H](Oc1ccccc1C)c1ccccc1` [Atomoxetine, (R)-(−)-N-methyl-3-(2-methylphenoxy)-3-phenylpropylamine] yielded a half-life ([1]; 20 mg, atomoxetine alone) of 3.92 h, a half-life ([1]; 20 mg, atomoxetine alone (Period 1), steady state, mean (range), n = 21) of 4.03 h and a Tmax ([1]; 20 mg, atomoxetine alone (Period 1), steady state, median (range), n = 21, read-out: Tmax) of 1 h. For the same compound, the AUC ([1]; 20 mg) was 846 ng·h/mL, the Vd/F ([1]; 20 mg) was 2.2 L/kg and the half-life ([1]; after concomitant paroxetine administration) was 10 h. It also gave a half-life ([1]; atomoxetine with paroxetine (Period 2), steady state, mean (range), n = 14) of 11 h, a Tmax ([1]; atomoxetine with paroxetine (Period 2), steady state, median (range), n = 14, read-out: Tmax) of 1.5 h and a Tmax ([1]; atomoxetine with paroxetine versus atomoxetine alone, read-out: median of the paired difference in Tmax) of 0.5 h. The AUC [1] was 5970 ng·h/mL, the Vd/F [1] was 0.803 L/kg and the “response to atomoxetine treatment” value ([2]; poor metabolizer ADHD patients) was “greater response”. The “efficacy in the treatment of ADHD versus placebo” value ([2]; regardless of CYP2D6 status, extensive or poor metabolizer) was “robustly better than placebo”, the mean half-life ([3]; majority of patients) was 4.5 ± 1.1 h and the half-life ([3]; two patients (second class of kinetic disposition)) was 17.1 h and 21 h.
